Results reported in the Biogen ADME set (Fang et al. 2023).
≈ marks a conversion by molar mass, not a printed value.

Conditions: for aqueous solubility: pH 6.8

MDR1-MDCK efflux ratio	intrinsic clearance, human liver microsomes	intrinsic clearance, rat liver microsomes	aqueous solubility	fraction unbound, human plasma	fraction unbound, rat plasma	Compound
23.2	≤ 0.284 L/h/kg	2.76 L/h/kg				CN(CC1(CO)CCC1)C(=O)CCN1CCCCC1=O
4.78	0.382 L/h/kg	3.27 L/h/kg				N#Cc1ccc2nc(NCCn3ccnc3)ccc2c1
4.57	0.513 L/h/kg	15.2 L/h/kg	0.0231 mg/mL (≈ 66.9 µM)			Cc1nc2cc(NC(=O)Cc3c(C)nc4ccccc4c3C)ccc2o1
0.45	0.733 L/h/kg	11.3 L/h/kg	0.043 mg/mL (≈ 146 µM)			CCn1cc(C2CCN(Cc3ccc(C#N)cc3)CC2)cn1
1.19	0.669 L/h/kg	≤ 0.64 L/h/kg	0.0588 mg/mL (≈ 163 µM)			N#Cc1c(O)nc2scc(-c3ccc(-c4ccccc4O)cc3)c2c1O
11.2	≤ 0.284 L/h/kg	27.5 L/h/kg				CN1CCC(O)(CNC(=O)C2CCCCCC2)CC1
			0.0219 mg/mL (≈ 77.5 µM)			CCc1nc(COc2ccccc2Br)no1
	7.43 L/h/kg	1.97 L/h/kg	0.0147 mg/mL (≈ 36.7 µM)			COc1ccc(-c2ccc(CNc3ccc(CN4CCC(C)CC4)cc3)cc2)cc1
0.705	≤ 0.284 L/h/kg	3.14 L/h/kg	0.0293 mg/mL (≈ 127 µM)			Cc1ccc(CCNC(=O)c2ccncc2)o1
0.317	15.4 L/h/kg	44.8 L/h/kg	0.0449 mg/mL (≈ 132 µM)			FC(F)(F)c1nccc(NCCSc2nc3ccccc3o2)n1
0.958	1.26 L/h/kg	40.6 L/h/kg	0.036 mg/mL (≈ 105 µM)			O=S(=O)(N1CCOCC1)N1CCN(Cc2ccccc2F)CC1
0.395	3.96 L/h/kg	119 L/h/kg				CCCN(CCC1=CCCCC1)C(=O)c1cc(C(F)F)n[nH]1
3.79	0.656 L/h/kg	27 L/h/kg	0.119 mg/mL (≈ 375 µM)			O=C1CC[C@H](O)[C@@H](c2cccc(Cl)c2)N1Cc1ccccc1
1.76	≤ 0.284 L/h/kg	0.744 L/h/kg				O=C(O)c1ccccc1COc1cccc2cccnc12
1.05	0.355 L/h/kg	1.93 L/h/kg	0.0282 mg/mL (≈ 116 µM)			c1cc(CN2CCC(c3ccn[nH]3)CC2)ccn1
	≤ 0.284 L/h/kg	≤ 0.64 L/h/kg				O=C1NC2(CCC2)C(=O)N1Cc1ccon1
	2.57 L/h/kg	5.1 L/h/kg	0.0127 mg/mL (≈ 38.8 µM)			CCCCCCCC/C(=C\CCCCCCCC(=O)O)[N+](=O)[O-]
5	1.07 L/h/kg	19.1 L/h/kg	0.051 mg/mL (≈ 155 µM)			Cc1c(C(=O)NCc2cnc(N(C)C)n2C)sc2ccccc12
27.4	3.54 L/h/kg	18.8 L/h/kg				C[C@H](Cc1cc2c(c(C(N)=O)c1)N(CCCO)CC2)NCCOc1ccccc1OCC(F)(F)F
			0.00055 mg/mL (≈ 1.8 µM)			O=C(Nc1nc2ccccc2[nH]1)c1cc(Cl)ccc1Cl

MDR1-MDCK efflux ratio	intrinsic clearance, human liver microsomes	intrinsic clearance, rat liver microsomes	aqueous solubility	fraction unbound, human plasma	fraction unbound, rat plasma	Compound
29	2.17 L/h/kg	24.9 L/h/kg	0.0563 mg/mL (≈ 163 µM)			Cn1cc(C(=O)NCCc2c[nH]c3ccccc23)c(-c2cccnc2)n1
61.7	2.1 L/h/kg	13.1 L/h/kg	0.0536 mg/mL (≈ 148 µM)			CC[C@@H]1[C@H](F)C(=O)N[C@@H]1COc1nccc2cc(C(N)=O)c(OC)cc12
			0.0254 mg/mL (≈ 99.2 µM)			Cc1cc(OCc2cc(C#N)ccc2F)ccc1N
6.89	≤ 0.284 L/h/kg	2.09 L/h/kg	0.0619 mg/mL (≈ 151 µM)			Cc1cnc(C(=O)N[C@H]2CCOC[C@@H]2O)cc1Cc1ccc(-c2cscn2)cc1
			0.0005 mg/mL (≈ 1.6 µM)			O=C(Nc1nc2ccccc2[nH]1)c1ccc(-c2ccccc2)cc1
3.28			0.00065 mg/mL (≈ 1.26 µM)			Cc1nc(-c2cccnc2)sc1C(=O)Nc1ccccc1-c1cn2c(CN3CCOCC3)csc2n1
0.691	0.833 L/h/kg	8.89 L/h/kg				COc1cc(Br)c2c(=O)[nH]c(C)nc2c1
15.2	0.858 L/h/kg	11 L/h/kg	0.0564 mg/mL (≈ 166 µM)			CCCc1cc(N2CCc3c(nc(C(C)C)n3C)C2)n2ncnc2n1
0.708	1.24 L/h/kg	133 L/h/kg	0.0417 mg/mL (≈ 148 µM)	0.233	0.248	OCC1CCCCN1Cc1ccc(-c2ccccc2)cc1 (stereo not drawn)
5.09	1.65 L/h/kg	6.88 L/h/kg	0.0332 mg/mL (≈ 97 µM)			C=CCn1cnc2c(Cl)cc(-c3ccc(C(=O)NC4CC4)o3)cc21
0.974	0.946 L/h/kg	26.4 L/h/kg	0.0344 mg/mL (≈ 113 µM)			c1ccc(-c2n[nH]c(C3CCN(c4ccccn4)CC3)n2)cc1
0.731	3.03 L/h/kg	20.7 L/h/kg	0.0296 mg/mL (≈ 121 µM)			CC(C)CN(c1ncnc2c1cnn2C)C1CC1
50.8	1.1 L/h/kg	≤ 0.64 L/h/kg				CCc1c2c(nc3ccc(O)cc13)-c1cc3c(c(=O)n1C2)COC(=O)[C@]3(O)CC
0.595	0.687 L/h/kg	14.3 L/h/kg	0.0157 mg/mL (≈ 49.9 µM)			CNC(=O)c1ccc(CN(C)c2c(F)cc(C#N)cc2F)cc1
0.669	2.08 L/h/kg	134 L/h/kg				Cc1nc(-c2ccc(S(=O)(=O)N(C)C)cc2)cc(C(C)C)n1
26.6	≤ 0.284 L/h/kg	≤ 0.64 L/h/kg				CC(=O)N1CCN(Cc2nc(O)cc(C(F)(F)F)n2)C(C)(C)C1
0.646	0.926 L/h/kg	11 L/h/kg	0.0564 mg/mL (≈ 232 µM)			C#CCNC(=O)Cc1coc2cc(OC)ccc12
	25.2 L/h/kg	388 L/h/kg				Cc1ccc(C)c(OCCC(=O)N2CCC(n3c(=O)[nH]c4ccccc43)CC2)c1
18	≤ 0.284 L/h/kg	0.663 L/h/kg	0.0685 mg/mL (≈ 227 µM)			CCOc1ccc(CC(=O)NCCn2cccnc2=O)cc1
0.61	≤ 0.284 L/h/kg	29 L/h/kg	0.0147 mg/mL (≈ 54.2 µM)			Cc1n[nH]c(C)c1Cc1ccc(NCCC(C)C)cc1

MDR1-MDCK efflux ratio	intrinsic clearance, human liver microsomes	intrinsic clearance, rat liver microsomes	aqueous solubility	fraction unbound, human plasma	fraction unbound, rat plasma	Compound
1.08	2.04 L/h/kg	14.1 L/h/kg	0.0111 mg/mL (≈ 37.3 µM)			OCCCCCn1cc(-c2ccccc2-c2ccco2)nn1
49.4	≤ 0.284 L/h/kg	≤ 0.64 L/h/kg	0.0348 mg/mL (≈ 125 µM)			CCN(C(=O)CN1CCNC(=O)C1)c1ccc(F)cc1
0.86			0.00035 mg/mL (≈ 0.694 µM)			FC(F)(F)c1ccc(Nc2nc3cc(Oc4ccnc(-c5ncc(C(F)(F)F)[nH]5)c4)ccc3[nH]2)cc1
0.351	5.27 L/h/kg	246 L/h/kg	0.0281 mg/mL (≈ 100 µM)			CN(Cc1ccc2c(c1)OCO2)Cc1ccccc1C#N
2.87	1.92 L/h/kg	12.6 L/h/kg	0.0437 mg/mL (≈ 140 µM)			CC(=O)N(c1ccc(C)cc1)c1nc(Cn2ccnc2)cs1
43.9	1.38 L/h/kg	25.3 L/h/kg	0.0549 mg/mL (≈ 122 µM)			COc1ccccc1CNc1n[nH]c2nc([C@H]3CCCN(CC(=O)N4CCCC4)C3)ccc12
0.742	3.16 L/h/kg	23.4 L/h/kg				O=C(Nc1ccc2c(c1)N(CC(F)F)C(=O)CS2)C1CC=CC1
	34 L/h/kg	226 L/h/kg				O=C(CCc1cnn(-c2ccccc2)c1)N1CCC(n2c(=O)[nH]c3ccccc32)CC1
			0.00081 mg/mL (≈ 2.43 µM)			CCCCCCCCc1ccc2c(c1)CC[C@@H](C(N)(CO)CO)C2
1.02	0.696 L/h/kg	≤ 0.64 L/h/kg	0.0466 mg/mL (≈ 139 µM)			CCN1CCc2nc(NC(=O)Cc3ccc(Cl)cc3)sc2C1
			0.0085 mg/mL (≈ 27.5 µM)			CN(Cc1sccc1Br)c1nccnc1C#N
6.3	≤ 0.284 L/h/kg	26.8 L/h/kg	0.0439 mg/mL (≈ 140 µM)			Cn1ccnc1CN1CCN(Cc2ccc(F)cc2C#N)CC1
0.674	0.519 L/h/kg	4.91 L/h/kg				OCCC1(CNc2ncc(Br)cn2)CC1
0.646	9.83 L/h/kg	74.7 L/h/kg	0.0456 mg/mL (≈ 138 µM)			O=C(NCCc1ccc2c(c1)OCO2)N1CCc2sccc2C1
18.1	≤ 0.284 L/h/kg	1.68 L/h/kg				O=C(CCc1cn[nH]c1)NCCCn1cc(Cl)cn1
8.32	3.86 L/h/kg	27.3 L/h/kg				Cc1cc(Nc2ncccn2)cc(C2CCCN(CC(=O)Nc3ccc(F)cc3)C2)n1 (stereo not drawn)
26.6	1.79 L/h/kg	84.4 L/h/kg				CC(C)(C)C(=O)N1CCC(CN(CC(N)=O)C2CCCC2)CC1
5.72	≤ 0.284 L/h/kg	4.14 L/h/kg				CN(C)C(=O)c1ccnc(NCc2cccc(C#N)c2)c1
